Two compounds from patent US20210060121A1, “NOVEL ANTIBIOTICS AND METHODS OF USING THEM” (priority 2018, published 2021) can be followed below.

Converted amounts (≈) assume the structure as drawn.

The test system of assay [1] is SA (ATCC29213). Format: cell-based, Staphylococcus aureus. How it is done: (§1) Susceptibility to teixobactin and its analogues was tested on the selected Gram-positive strains using Tecan Freedom EVO high-throughput automated platform, following the standard broth dilution method as described by the Clinical and Laboratory Standards Institute ^3. MICS were determined according to CLSI guideline.

Assay [2] relates to MRSA(SA11I4). Format: cell-based, Staphylococcus aureus. How it is done: as §1
Assay [3] has as its system MRSA SA88. Format: cell-based, Staphylococcus aureus. How it is done:
as §1

Assay [4] relates to MRSA SA86. Format: cell-based, Staphylococcus aureus. The protocol: as §1
In assay [5] the test system is MRSA SA11. Format: cell-based, Staphylococcus aureus. The protocol: as §1
Assay [6] has as its system Streptococcus faecalis SF. Format: cell-based. How it is done:
as §1

Assay [7] has as its system Enterococcus ATCCET. Format: cell-based. The protocol:
as §1

Assay [8] deals with Enterococcus ET6. Format: cell-based. How it is done:
as §1

For assay [9], the system named is Enterococcus ET60. Format: cell-based. The protocol: as §1
Assay [10] has as its system MRSA and SA strains. Kind of assay: MIC, summary over S. aureus strains. Format: cell-based, Staphylococcus aureus. How it is done:
as §1

For assay [11], the system named is Streptococcus faecalis and Enterococcus strains. Kind of assay: MIC, text summary over Streptococcus faecalis and Enterococcus. Format: cell-based. The note with it: against Streptococcus faecalis and Enterococcus strains; Table 2. The protocol:
as §1

The subject of assay [12] is Staphylococcus aureus strain ATCC43300. Kind of assay: Wax worm survival model infected with S. aureus. Format: in vivo, Galleria mellonella. The source says: FIG. 2. In vivo antibacterial activities of certain antibiotics of the invention. Efficacy of teixobactin and certain antibiotics of the invention for treating infections caused by Staphylococcus aureus strain ATCC43300 was studied in wax worm larvae (Galleria mellonella) model. PBS, control group without infection and treated with PBS: All other groups (20 each group) were infected with 10^7 CFU of S. aureus strain ATCC43300 followed by no treatment or treatment with one dose of vancomycin at 10 mg/kg (A-10) or 50 mg/kg (A-50), teixobactin at 10 mg/kg (B-10) or 50 mg/kg (B-50), or one dose of the representative analogue, Chg10-teixobactin, at 10 mg/kg (C-10) or 50 mg/kg (C-50).
Exemplary in vivo antibacterial activity: Chg10-Teixobactin was studied in wax worm survival models infected with S. aureus strain ATCC43300. Teixobactin were used as controls. […] At a dose of 50 mg/kg, Chg10-Teixobactin protected 100% infected wax worms (See FIG. 2).

Take `CC[C@@H](C)[C@@H](NC(=O)[C@@H](CCC(N)=O)NC(=O)[C@@H](NC(=O)[C@@H](NC(=O)[C@@H](Cc1ccccc1)NC)[C@@H](C)CC)[C@@H](C)CC)C(=O)N[C@H](C(=O)N[C@@H](CO)C(=O)N[C@H]1C(=O)N[C@@H](C)C(=O)N[C@@H](C2CCCCC2)C(=O)N[C@@H]([C@@H](C)CC)C(=O)O[C@H]1C)[C@@H](C)CC` [T88]: in assay [1], the “Minimum inhibitory concentration (MIC) SA (ATCC29213)” value is 4 µg/mL (≈ 3.19 µM). In assay [2], the “Minimum inhibitory concentration (MIC) MRSA(SA11I4)” value came out at 8 µg/mL (≈ 6.38 µM). For the same compound, the “Minimum inhibitory concentration (MIC) MRSA SA88” value in assay [3] was 4 µg/mL (≈ 3.19 µM). The “Minimum inhibitory concentration (MIC) MRSA SA86” value in assay [4] is 4 µg/mL (≈ 3.19 µM). The “Minimum inhibitory concentration (MIC) MRSA SA11” value in assay [5] is 4 µg/mL (≈ 3.19 µM). The “Minimum inhibitory concentration (MIC) Streptococcus faecalis SF” value in [6] was 1 µg/mL (≈ 0.798 µM). In addition, the “Minimum inhibitory concentration (MIC) Enterococcus ATCCET” value in [7] came to 2 µg/mL (≈ 1.6 µM). In assay [8], the “Minimum inhibitory concentration (MIC) Enterococcus ET6” value was 2 µg/mL (≈ 1.6 µM). Also, in [9], the “Minimum inhibitory concentration (MIC) Enterococcus ET60” value worked out at 1 µg/mL (≈ 0.798 µM). In addition, the “Activities, times lower than teixobactin” value in assay [10] (against MRSA and SA strains, Table 2) is recorded as “about 4 times”. For the same compound, the “Activities compared with teixobactin” value in assay [11] is recorded as “better than teixobactin”.
As to `CC[C@@H](C)[C@@H](NC(=O)[C@@H](CCC(N)=O)NC(=O)[C@H](CO)NC(=O)[C@@H](NC(=O)[C@@H](Cc1ccccc1)NC)[C@@H](C)CC)C(=O)N[C@H](C(=O)N[C@@H](CO)C(=O)N[C@H]1C(=O)N[C@@H](C)C(=O)N[C@@H](C2CCCCC2)C(=O)N[C@@H]([C@@H](C)CC)C(=O)O[C@H]1C)[C@@H](C)CC` [Chg10-teixobactin], the “Minimum inhibitory concentration (MIC) SA (ATCC29213)” value in [1] amounted to 0.25 µg/mL (≈ 0.204 µM). Also, the “Minimum inhibitory concentration (MIC) MRSA(SA11I4)” value in assay [2] came out at 1 µg/mL (≈ 0.815 µM). The “Infected wax worms protected” value in assay [12] (one dose of 50 mg/kg, wax worms infected with S. aureus ATCC43300) is reported as 100%. Moreover, the “In vivo antibacterial activities, teixobactin as control” value in [12] (one dose treatment, wax worm survival model, S. aureus ATCC43300) is “improved antibacterial activities”. Also, in assay [10] (MRSA clinical isolate and MSSA ATCC29213, from MICs), the “Antibacterial activity compared with teixobactin” value was “two times higher activities than teixobactin”.
